Results as given in US7524503B2, “Human cytomegalovirus (HCMV) cytotoxic T cell epitopes, polyepitopes compositions comprising same and diagnostic and prophylactic and therapeutic uses therefor” (priority 2001, dated 2009).

What was measured:
HLA B27 = test: MHC stabilization assay on T2 cells; type: cell-based, human; settings: HLA B27 on transfected T2 cells; relative increase vs no peptide at 26° C.
[1] = tested on: peptide-sensitized autologous PHA blasts or LCLs; type: cell-based, human; design: key to CTL response: Y: Yes; ND: Not detected; settings: predicted epitopes, Table 3
[2] = tested on: PBMC from healthy HCMV seropositive donors; test: IFN-γ ELISPOT assay; type: cell-based, human; settings: peptide 10 μg/ml
Outline: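 PBMC from healthy HCMV-seropositive donors (2.5×10^5 cells/well) were stimulated 18 h at 37° C with individual synthetic HCMV peptides (10 μg/ml) on anti-IFN-γ-coated nitrocellulose. IFN-γ spots were developed with biotinylated antibody and streptavidin-alkaline phosphatase and counted automatically. Counts were averaged over 3 wells, and no-peptide wells were subtracted.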

HLA B7 = molecular target: T1, HLA B7 (Homo sapiens, UniProt P01889); type: cell-based; settings: HLA B7 on transfected T2 cells; relative increase vs no peptide at 26° C.
T1 construct: expressed in transfected cells; host or cells: T2 cells
T1 sequence (P01889 25-362): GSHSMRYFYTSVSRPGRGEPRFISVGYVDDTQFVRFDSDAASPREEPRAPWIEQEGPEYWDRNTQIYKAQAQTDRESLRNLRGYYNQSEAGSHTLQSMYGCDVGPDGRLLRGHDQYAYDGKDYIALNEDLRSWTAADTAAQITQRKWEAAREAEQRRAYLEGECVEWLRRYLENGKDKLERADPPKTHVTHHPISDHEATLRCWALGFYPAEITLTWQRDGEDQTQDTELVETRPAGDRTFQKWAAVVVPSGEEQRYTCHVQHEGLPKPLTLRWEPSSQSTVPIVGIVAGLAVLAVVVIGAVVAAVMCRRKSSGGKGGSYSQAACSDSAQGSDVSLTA
T1 sequence (P61769 21-119, further chain): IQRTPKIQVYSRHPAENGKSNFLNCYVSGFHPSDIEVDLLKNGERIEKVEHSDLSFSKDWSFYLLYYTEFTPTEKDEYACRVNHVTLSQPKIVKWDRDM

HLA B8 = test: MHC stabilization assay on T2 cells; type: cell-based, human; settings: HLA B8 on transfected T2 cells; relative increase vs no peptide at 26° C.
HLA A24 = test: MHC stabilization assay on T2 cells; type: cell-based, human; settings: HLA A24 on transfected T2 cells; relative increase vs no peptide at 26° C.

ARVYEIKCR (human cytomegalovirus pp28 CTL epitope peptide)
MSE (MHC stabilization efficiency) (HLA B27): − (− = 0-50%) | CTL response [1]: Y | ELISPOT Responses (SFC/10^6 PBMC) ([2]; donor fourteen): RK(148) SFC/10^6 PBMC

EPMSIYVYAL
MSE (MHC stabilization efficiency) (HLA B7): + (+ = 51-99%)

RHRIKEHML (human cytomegalovirus IE1 CTL epitope peptide)
MSE (MHC stabilization efficiency) (HLA B8): − (− = 0-50%)

KYTQTEEKF (human cytomegalovirus IE1 CTL epitope peptide)
MSE (MHC stabilization efficiency) (HLA A24): − (− = 0-50%)

SYRSFSQQL (human cytomegalovirus gH CTL epitope peptide)
MSE (MHC stabilization efficiency) (HLA A24): − (− = 0-50%)

VYYTSAFVF
MSE (MHC stabilization efficiency) (HLA A24): − (− = 0-50%)

CYSRPVVIF (human cytomegalovirus gB CTL epitope peptide)
MSE (MHC stabilization efficiency) (HLA A24): − (− = 0-50%)

MYMHDSDDVL (human cytomegalovirus gH CTL epitope peptide)
MSE (MHC stabilization efficiency) (HLA A24): − (− = 0-50%)

TYALVSKDL (human cytomegalovirus gH CTL epitope peptide)
MSE (MHC stabilization efficiency) (HLA A24): − (− = 0-50%)

SPRTHYLML (human cytomegalovirus gH CTL epitope peptide)
MSE (MHC stabilization efficiency) (HLA B7): +++ (+++ = 200-300%)

TYGRPIRFL (human cytomegalovirus gH CTL epitope peptide)
MSE (MHC stabilization efficiency) (HLA A24): − (− = 0-50%)

ELKRKMMYM (human cytomegalovirus IE1 CTL epitope peptide)
CTL response [1]: Y | ELISPOT Responses (SFC/10^6 PBMC) ([2]; donor eleven): 300 SFC/10^6 PBMC | ELISPOT Responses (SFC/10^6 PBMC) ([2]; donor epsilon): SC(1000), SFC/10^6 PBMC | ELISPOT Responses (SFC/10^6 PBMC) ([2]; donor gamma): 100 SFC/10^6 PBMC | ELISPOT Responses (SFC/10^6 PBMC) ([2]; donor sixteen): 4999 SFC/10^6 PBMC | ELISPOT Responses (SFC/10^6 PBMC) ([2]; donor three): 1992 SFC/10^6 PBMC | MSE (MHC stabilization efficiency) (HLA B8): − (− = 0-50%)

YRIQGKLEY
MSE (MHC stabilization efficiency) (HLA B27): − (− = 0-50%) | ELISPOT Responses (SFC/10^6 PBMC) ([2]; donor sixteen): TC(307) SFC/10^6 PBMC

QPKRRRHRQ
MSE (MHC stabilization efficiency) (HLA B8): − (− = 0-50%)

IMKDKNTPF (human cytomegalovirus IE2 CTL epitope peptide)
MSE (MHC stabilization efficiency) (HLA B8): +++ (+++ = 200-300%)

CRYKYLRKK (human cytomegalovirus pp28 CTL epitope peptide)
MSE (MHC stabilization efficiency) (HLA B27): − (− = 0-50%)

RRIEEICMK (human cytomegalovirus IE1 CTL epitope peptide) [reference compound]
MSE (MHC stabilization efficiency) (HLA B27): − (− = 0-50%)

EYIVQIQNAF (human cytomegalovirus pp71 CTL epitope peptide)
MSE (MHC stabilization efficiency) (HLA A24): +++ (+++ = 200-300%)

RRDHSLERL (human cytomegalovirus gH CTL epitope peptide)
MSE (MHC stabilization efficiency) (HLA B27): − (− = 0-50%)

PRKKKSKRI (human cytomegalovirus IE2 CTL epitope peptide)
MSE (MHC stabilization efficiency) (HLA B8): − (− = 0-50%)

NYLDLSALL (human cytomegalovirus gH CTL epitope peptide)
MSE (MHC stabilization efficiency) (HLA A24): − (− = 0-50%)

LCPKSIPGL
MSE (MHC stabilization efficiency) (HLA B8): − (− = 0-50%)

SYENKTMQL (human cytomegalovirus gB CTL epitope peptide)
MSE (MHC stabilization efficiency) (HLA A24): − (− = 0-50%)

TRVKRNVKK (human cytomegalovirus pp50 CTL epitope peptide)
MSE (MHC stabilization efficiency) (HLA B27): − (− = 0-50%)

RRKMMYMCY (human cytomegalovirus IE1 CTL epitope peptide)
MSE (MHC stabilization efficiency) (HLA B27): + (+ = 51-99%)

VMKRRIEEI (human cytomegalovirus IE1 CTL epitope peptide)
MSE (MHC stabilization efficiency) (HLA B8): + (+ = 51-99%)

APVAGSMPEL (human cytomegalovirus US11 CTL epitope peptide)
MSE (MHC stabilization efficiency) (HLA B7): +++ (+++ = 200-300%)

VYLFSLVVL (human cytomegalovirus US3 CTL epitope peptide)
MSE (MHC stabilization efficiency) (HLA A24): − (− = 0-50%)

KARAKKDEL (human cytomegalovirus IE1 CTL epitope peptide)
MSE (MHC stabilization efficiency) (HLA B7): −/− (− = 0-50%) | ELISPOT Responses (SFC/10^6 PBMC) ([2]; donor eleven): 235 SFC/10^6 PBMC | ELISPOT Responses (SFC/10^6 PBMC) ([2]; donor four): 231 SFC/10^6 PBMC | MSE (MHC stabilization efficiency) (HLA B8): −/− (− = 0-50%)

KARDHLAVL (human cytomegalovirus pp150 CTL epitope peptide)
MSE (MHC stabilization efficiency) (HLA B7): +++ (+++ = 200-300%) | ELISPOT Responses (SFC/10^6 PBMC) ([2]; donor four): MB(975) SFC/10^6 PBMC

LYLCCGITL (human cytomegalovirus US6 CTL epitope peptide)
MSE (MHC stabilization efficiency) (HLA A24): − (− = 0-50%)

SPWAPTAPL (human cytomegalovirus pp150 CTL epitope peptide)
MSE (MHC stabilization efficiency) (HLA B7): +++ (+++ = 200-300%) | ELISPOT Responses (SFC/10^6 PBMC) ([2]; donor four): MB(180) SFC/10^6 PBMC

VYALPLKML
MSE (MHC stabilization efficiency) (HLA A24): − (− = 0-50%)

QARLTVSGL
MSE (MHC stabilization efficiency) (HLA B7): +++ (+++ = 200-300%) | ELISPOT Responses (SFC/10^6 PBMC) ([2]; donor four): MB(1116) SFC/10^6 PBMC

GRCQMLDRR (human cytomegalovirus gH CTL epitope peptide)
MSE (MHC stabilization efficiency) (HLA B27): − (− = 0-50%)

FPDLFCLPL (human cytomegalovirus gH CTL epitope peptide)
MSE (MHC stabilization efficiency) (HLA B7): +++ (+++ = 200-300%)

APYQRDNFIL (human cytomegalovirus gH CTL epitope peptide)
MSE (MHC stabilization efficiency) (HLA B7): +++ (+++ = 200-300%)

SPRTHYLMLL (human cytomegalovirus gH CTL epitope peptide)
MSE (MHC stabilization efficiency) (HLA B7): +++ (+++ = 200-300%)

TPRVYYQTL (human cytomegalovirus US11 CTL epitope peptide)
MSE (MHC stabilization efficiency) (HLA B7): +++ (+++ = 200-300%)

YYVFHMPRCL (human cytomegalovirus gH CTL epitope peptide)
MSE (MHC stabilization efficiency) (HLA A24): − (− = 0-50%)

WPRERAWAL (human cytomegalovirus pp150 CTL epitope peptide)
MSE (MHC stabilization efficiency) (HLA B7): +++ (+++ = 200-300%) | ELISPOT Responses (SFC/10^6 PBMC) ([2]; donor sixteen): TC(67) SFC/10^6 PBMC | MSE (MHC stabilization efficiency) (HLA B8): ++ (++ = 100-199%)

NVRRSWEEL (human cytomegalovirus pp150 CTL epitope peptide)
MSE (MHC stabilization efficiency) (HLA B7): ++ (++ = 100-199%) | ELISPOT Responses (SFC/10^6 PBMC) ([2]; donor five): 274 SFC/10^6 PBMC | ELISPOT Responses (SFC/10^6 PBMC) ([2]; donor four): 1431 SFC/10^6 PBMC

QYILGADPL (human cytomegalovirus IE1 CTL epitope peptide)
MSE (MHC stabilization efficiency) (HLA A24): +++ (+++ = 200-300%)

AYEYVDYLF (human cytomegalovirus gB CTL epitope peptide)
MSE (MHC stabilization efficiency) (HLA A24): − (− = 0-50%)

MPRCLFAGPL (human cytomegalovirus gH CTL epitope peptide)
MSE (MHC stabilization efficiency) (HLA B7): +++ (+++ = 200-300%)

QIKVRVDMV (human cytomegalovirus IE1 CTL epitope peptide)
CTL response [1]: Y | ELISPOT Responses (SFC/10^6 PBMC) ([2]; donor eleven): 2425 SFC/10^6 PBMC | ELISPOT Responses (SFC/10^6 PBMC) ([2]; donor epsilon): 2848 SFC/10^6 PBMC | ELISPOT Responses (SFC/10^6 PBMC) ([2]; donor one): 475 SFC/10^6 PBMC | ELISPOT Responses (SFC/10^6 PBMC) ([2]; donor sixteen): 2251 SFC/10^6 PBMC | MSE (MHC stabilization efficiency) (HLA B8): + (+ = 51-99%)

ELRRKMMYM (human cytomegalovirus IE1 CTL epitope peptide)
CTL response [1]: Y | ELISPOT Responses (SFC/10^6 PBMC) ([2]; donor eleven): 430 SFC/10^6 PBMC | ELISPOT Responses (SFC/10^6 PBMC) ([2]; donor epsilon): 1243 SFC/10^6 PBMC | ELISPOT Responses (SFC/10^6 PBMC) ([2]; donor one): 145 SFC/10^6 PBMC | ELISPOT Responses (SFC/10^6 PBMC) ([2]; donor sixteen): 4999 SFC/10^6 PBMC | MSE (MHC stabilization efficiency) (HLA B8): ++ (++ = 100-199%)

VLCPKNMII [reference compound]
MSE (MHC stabilization efficiency) (HLA B8): − (− = 0-50%)

VYVTVDCNL (human cytomegalovirus US2 CTL epitope peptide)
MSE (MHC stabilization efficiency) (HLA A24): − (− = 0-50%)

SYVVTNQYL (human cytomegalovirus gH CTL epitope peptide)
MSE (MHC stabilization efficiency) (HLA A24): − (− = 0-50%)

TPMLLIFGHL (human cytomegalovirus gH CTL epitope peptide)
MSE (MHC stabilization efficiency) (HLA B7): ++ (++ = 100-199%)

AYIYTTYLL (human cytomegalovirus gB CTL epitope peptide)
MSE (MHC stabilization efficiency) (HLA A24): − (− = 0-50%)
